We go through three compounds from PMC5118716, “Structural basis of TRPA1 inhibition by HC-030031 utilizing species-specific differences” (Scientific Reports, 2016).

Holding throughout (assay): two-electrode voltage clamp, X. laevis oocytes
Type in all cases: cell-based

For assay [1], the target named is T1, hTRPA1 (Homo sapiens, UniProt O75762).
T1 construct: gene TRPA1; full-length wild type (1119 residues); X. laevis oocytes (cRNA) or HEK293T cells (pcDNA3.1)
As to conditions: agonist, non-electrophilic; pH 7.4, -60 mV.

Assay [2] concerns the target T2, fTRPA1 (Xenopus tropicalis, UniProt A0A8J0QD66).
T2 construct: gene trpa1; full-length wild type (1144 residues); X. laevis oocytes (cRNA)
T2 sequence (A0A8J0QD66 1-1144): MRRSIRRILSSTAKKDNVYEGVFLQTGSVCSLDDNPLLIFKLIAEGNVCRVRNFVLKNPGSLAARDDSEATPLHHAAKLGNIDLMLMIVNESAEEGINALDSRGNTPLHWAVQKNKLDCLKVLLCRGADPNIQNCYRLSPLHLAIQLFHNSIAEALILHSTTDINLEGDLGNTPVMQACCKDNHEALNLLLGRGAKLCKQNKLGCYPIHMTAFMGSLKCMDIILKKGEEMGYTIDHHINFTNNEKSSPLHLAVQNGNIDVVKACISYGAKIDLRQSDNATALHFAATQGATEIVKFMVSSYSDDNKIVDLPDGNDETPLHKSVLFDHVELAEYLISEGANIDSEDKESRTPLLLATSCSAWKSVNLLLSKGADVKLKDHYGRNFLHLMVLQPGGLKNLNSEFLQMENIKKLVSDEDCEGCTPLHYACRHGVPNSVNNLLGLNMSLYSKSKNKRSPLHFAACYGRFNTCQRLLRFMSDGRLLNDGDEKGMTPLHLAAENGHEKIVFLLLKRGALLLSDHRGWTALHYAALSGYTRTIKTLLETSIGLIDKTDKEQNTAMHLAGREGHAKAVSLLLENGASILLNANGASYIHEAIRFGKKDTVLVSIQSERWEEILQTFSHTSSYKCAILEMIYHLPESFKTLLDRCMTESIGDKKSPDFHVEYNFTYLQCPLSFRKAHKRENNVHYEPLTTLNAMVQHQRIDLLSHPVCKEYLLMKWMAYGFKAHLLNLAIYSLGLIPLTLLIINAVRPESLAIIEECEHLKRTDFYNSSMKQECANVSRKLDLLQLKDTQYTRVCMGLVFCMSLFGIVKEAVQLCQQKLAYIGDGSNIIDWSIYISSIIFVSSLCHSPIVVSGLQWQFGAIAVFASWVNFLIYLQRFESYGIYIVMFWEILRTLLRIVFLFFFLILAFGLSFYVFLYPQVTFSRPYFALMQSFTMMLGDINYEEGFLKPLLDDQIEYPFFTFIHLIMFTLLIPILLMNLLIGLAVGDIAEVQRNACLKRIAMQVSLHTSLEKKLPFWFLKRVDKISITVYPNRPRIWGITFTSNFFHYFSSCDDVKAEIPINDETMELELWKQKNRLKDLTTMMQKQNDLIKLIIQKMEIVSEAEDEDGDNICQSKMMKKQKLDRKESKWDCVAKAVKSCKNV
The conditions noted are these: agonist.

The target of assay [3] is T3, zTRPA1b (Danio rerio, UniProt A0A8M1N2Z4, R860N).
T3 construct: gene trpa1b; full-length; X. laevis oocytes (cRNA)
T3 sequence (A0A8M1N2Z4 1-1120 R860N): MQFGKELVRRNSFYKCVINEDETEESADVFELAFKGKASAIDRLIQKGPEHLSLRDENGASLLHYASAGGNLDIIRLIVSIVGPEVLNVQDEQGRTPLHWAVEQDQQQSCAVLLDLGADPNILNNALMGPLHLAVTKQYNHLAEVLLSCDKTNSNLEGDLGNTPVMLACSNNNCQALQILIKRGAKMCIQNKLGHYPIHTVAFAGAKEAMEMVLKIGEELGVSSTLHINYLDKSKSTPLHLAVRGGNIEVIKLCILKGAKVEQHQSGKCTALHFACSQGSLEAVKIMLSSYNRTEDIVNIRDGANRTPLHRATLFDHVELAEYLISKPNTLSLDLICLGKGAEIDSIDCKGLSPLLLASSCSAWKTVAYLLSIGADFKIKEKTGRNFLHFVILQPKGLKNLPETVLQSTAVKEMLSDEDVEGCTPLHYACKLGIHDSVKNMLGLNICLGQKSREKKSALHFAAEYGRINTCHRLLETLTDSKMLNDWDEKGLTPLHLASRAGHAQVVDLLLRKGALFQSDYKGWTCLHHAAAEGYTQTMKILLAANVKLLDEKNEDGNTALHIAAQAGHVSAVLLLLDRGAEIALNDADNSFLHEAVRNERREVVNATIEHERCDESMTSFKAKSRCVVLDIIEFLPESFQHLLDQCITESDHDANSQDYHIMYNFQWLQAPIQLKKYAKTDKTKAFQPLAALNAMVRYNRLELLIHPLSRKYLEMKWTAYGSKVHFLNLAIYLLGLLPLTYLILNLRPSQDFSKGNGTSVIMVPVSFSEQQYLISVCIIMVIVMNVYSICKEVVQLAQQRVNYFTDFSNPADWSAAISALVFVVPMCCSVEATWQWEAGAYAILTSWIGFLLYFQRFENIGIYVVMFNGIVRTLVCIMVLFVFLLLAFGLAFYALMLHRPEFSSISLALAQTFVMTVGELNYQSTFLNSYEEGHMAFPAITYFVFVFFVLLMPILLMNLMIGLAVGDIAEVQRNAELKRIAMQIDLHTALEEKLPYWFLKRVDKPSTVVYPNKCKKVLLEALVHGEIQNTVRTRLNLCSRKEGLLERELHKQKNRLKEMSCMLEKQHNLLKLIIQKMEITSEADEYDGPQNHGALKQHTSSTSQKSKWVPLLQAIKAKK
The conditions noted are these: antagonist; vs 1 mM CA; pH 7.4, 1.8 mM CaCl2, -60 mV.

Assay [4] addresses T4, hTRPA1 (Homo sapiens, UniProt O75762, N855S).
T4 construct: gene TRPA1; full-length wild type (1119 residues); X. laevis oocytes (cRNA) or HEK293T cells (pcDNA3.1)
The conditions noted are these: antagonist; vs 0.3 mM CA; pH 7.4, 1.8 mM CaCl2, -60 mV.

The target in assay [5] is T5, fTRPA1 (Xenopus tropicalis, UniProt A0A8J0QD66, S880N).
T5 construct: gene trpa1; full-length wild type (1144 residues); X. laevis oocytes (cRNA)
T5 sequence (A0A8J0QD66 1-1144 S880N): T2 sequence (A0A8J0QD66 1-1144) with S880N
As to conditions: antagonist; vs 0.5 mM CA; pH 7.4, 1.8 mM CaCl2, -60 mV.

Numbering of substitutions follows the chain as printed.

T4 sequence (O75762 whole entry N855S): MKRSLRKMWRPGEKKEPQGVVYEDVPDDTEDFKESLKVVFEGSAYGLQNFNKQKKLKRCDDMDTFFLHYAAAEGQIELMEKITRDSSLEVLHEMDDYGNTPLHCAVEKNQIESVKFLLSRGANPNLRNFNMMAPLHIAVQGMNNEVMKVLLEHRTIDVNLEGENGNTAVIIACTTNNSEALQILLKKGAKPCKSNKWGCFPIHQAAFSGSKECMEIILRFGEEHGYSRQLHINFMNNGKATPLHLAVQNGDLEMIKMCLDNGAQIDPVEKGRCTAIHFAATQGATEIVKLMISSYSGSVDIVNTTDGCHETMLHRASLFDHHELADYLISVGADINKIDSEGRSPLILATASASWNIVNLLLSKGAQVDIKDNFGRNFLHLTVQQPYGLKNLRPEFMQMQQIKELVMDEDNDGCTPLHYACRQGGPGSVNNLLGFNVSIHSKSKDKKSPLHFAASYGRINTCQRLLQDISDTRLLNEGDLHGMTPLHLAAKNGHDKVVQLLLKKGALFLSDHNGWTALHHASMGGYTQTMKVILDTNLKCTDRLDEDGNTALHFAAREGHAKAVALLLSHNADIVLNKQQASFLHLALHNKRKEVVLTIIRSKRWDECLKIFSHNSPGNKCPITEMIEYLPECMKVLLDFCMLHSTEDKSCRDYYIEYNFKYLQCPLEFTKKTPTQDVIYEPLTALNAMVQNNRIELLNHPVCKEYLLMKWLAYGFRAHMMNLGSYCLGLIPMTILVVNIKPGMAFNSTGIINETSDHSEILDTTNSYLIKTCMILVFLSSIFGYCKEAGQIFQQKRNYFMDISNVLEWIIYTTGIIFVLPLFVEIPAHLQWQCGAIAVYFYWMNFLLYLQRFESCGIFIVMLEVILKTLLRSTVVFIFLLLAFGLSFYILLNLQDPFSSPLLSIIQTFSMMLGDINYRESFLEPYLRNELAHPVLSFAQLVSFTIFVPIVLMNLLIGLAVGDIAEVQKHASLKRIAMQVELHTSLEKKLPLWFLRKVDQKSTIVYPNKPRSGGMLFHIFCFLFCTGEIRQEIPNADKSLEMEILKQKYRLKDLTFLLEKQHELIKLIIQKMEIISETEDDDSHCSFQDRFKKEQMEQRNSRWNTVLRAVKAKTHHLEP
T1 sequence (O75762 whole entry): as the sequence (O75762 whole entry N855S) above, with S855N counted along it

Turning to `Cc1ccc(C(C)C)cc1O` [carvacrol], the “two-electrode voltage clamp, X. laevis oocytes” value is “hTRPA1 and fTRPA1 currents activated by the non-electrophilic compound carvacrol” in assay [1]; “hTRPA1 and fTRPA1 currents activated by the non-electrophilic compound carvacrol” in assay [2] (non-electrophilic, pH 7.4, -60 mV).
For `O=CC=Cc1ccccc1` [CA, cinnamaldehyde], the “two-electrode voltage clamp, X. laevis oocytes” value in assay [2] (0.5 mM, covalent, pH 7.4, 1.8 mM CaCl2, -60 mV) is recorded as “TRPA1-mediated currents were activated by CA with approximately similar amplitude”.
For `CC(C)c1ccc(NC(=O)Cn2cnc3c2c(=O)n(C)c(=O)n3C)cc1` [HC, HC-030031], the “inhibition at 50 μM” value in assay [3] is on record as “significant reduction in current amplitudes in zTRPA1-R860N although wt-zTRPA1b showed no inhibition”; in assay [4], “hTRPA1-N855S showed significantly less sensitivity to HC than wt-hTRPA1 at all concentrations examined”; in assay [5], “HC reduced the CA-evoked currents in the second application in fTRPA1-S880N”.
